The source of these data is ChEMBL document CHEMBL4130486, “Design, synthesis and immunological evaluation of novel amphiphilic desmuramyl peptides” (Eur J Med Chem, 2017).

Series [1] relates to THP-1. Nature of the series: Immunomodulatory activity in human THP1 cells assessed as increase in LPS-induced ICAM1 expression at 16 uM uM incubated for 21 hrs by immunostaining and flow cytometry. The format is functional.
The test system of series [2] is THP-1. Nature of the series: Immunomodulatory activity in PMA-differentiated human THP1 cells assessed as increase in TNFalpha production at 1 to 30 uM incubated for 24 hrs by ELISA. The format is functional, cell-based.
Series [3] relates to THP-1. Nature of the series: Toxicity in PMA-differentiated human THP1 cells assessed as cell death at 0.1 to 64 uM by trypan blue dye based assay. To be noted: thp-1, 64 µM.
Series [4] relates to THP-1. Nature of the series: Immunomodulatory activity in human THP1 cells assessed as increase in LPS-induced ICAM1 expression at 1 to 32 uM uM incubated for 21 hrs by immunostaining and flow cytometry. The format is functional, cell-based. On the technique in general: In flow cytometry, cells or beads pass a laser one at a time.
The test system of series [5] is THP-1. Nature of the series: Immunomodulatory activity in PMA-differentiated human THP1 cells assessed as increase in LPS-induced ICAM1 expression by measuring fluorescence intensity at 8 uM pre-incubated for 1 hr before LPS stimulation and further incubated for 20 hrs by immunostaining and flow cytometry relative to LPS alone. Format: functional.
In series [6] the test system is THP-1. Nature of the series: Immunomodulatory activity in PMA-differentiated human THP1 cells assessed as increase in LPS-induced ICAM1 expression by measuring fluorescence intensity at <=4 uM pre-incubated for 1 hr before LPS stimulation and further incubated for 20 hrs by immunostaining and flow cytometry relative to LPS alone. Format: functional, cell-based.
The test system of series [7] is THP-1. The series is described as follows: Immunomodulatory activity in PMA-differentiated human THP1 cells assessed as increase in LPS-induced ICAM1 expression by measuring fluorescence intensity at =>16 uM pre-incubated for 1 hr before LPS stimulation and further incubated for 20 hrs by immunostaining and flow cytometry relative to LPS alone. Format: functional, cell-based.

Series [8] has as its system THP-1. The series is described as follows: Immunomodulatory activity in PMA-differentiated human THP1 cells assessed as increase in TNFalpha production by measuring TNFalpha level at 15 uM incubated for 24 hrs by ELISA. The format is functional.
Series [9] has as its system THP-1. Nature of the series: Immunomodulatory activity in human THP1 cells assessed as increase in ICAM1 expression at 20 uM incubated for 21 hrs by immunostaining and flow cytometry. Format: functional, cell-based.
The subject of series [10] is THP-1. The series is described as follows: Immunomodulatory activity in PMA-differentiated human THP1 cells assessed as increase in TNFalpha production at 30 uM incubated for 24 hrs by ELISA. The format is functional, cell-based. In general terms: ELISA stands for enzyme-linked immunosorbent assay.
The test system of series [11] is THP-1. The series is described as follows: Immunomodulatory activity in PMA-differentiated human THP1 cells assessed as increase in ICAM1 expression by measuring fluorescence intensity at 20 uM incubated for 21 hrs by immunostaining and flow cytometry (reference value: 602.95 No unit). The format is functional.
Series [12] relates to THP-1. Nature of the series: Immunomodulatory activity in PMA-differentiated human THP1 cells assessed as increase in LPS-induced ICAM1 expression by measuring fluorescence intensity at 20 uM pre-incubated for 1 hr before LPS stimulation and further incubated for 20 hrs by immunostaining and flow cytometry relative to LPS alone. The format is functional, cell-based.

SMILES strings stand for the structures. Active and inactive are the calls of the source. The rule behind the calls is not given here. Where only a bound is given, the exact number is not on record here.

Take `CCCCCCNC(=O)CC[C@@H](NC(=O)[C@H](C)NC(=O)COc1cccc(N(CCCO)CCCO)c1)C(N)=O`: the Activity result with THP-1 [1] was “<=46%”; in the series on THP-1 [3], “Non-Toxic”; with THP-1 [5], “<=33%”; in the series with THP-1 [8], 3606 pg/mL. The result with THP-1 [2], in the series with THP-1 [4], in the series on THP-1 [6] and with THP-1 [9] was Active. Also, the result in the series with THP-1 [7] and with THP-1 [10] was inactive. The Flu intensity in the series on THP-1 [11] is 777.29.

Regarding `CCCCOC(=O)[C@@H](CCC(N)=O)NC(=O)[C@H](C)NC(=O)[C@@H](C)O[C@H]1[C@H](O)[C@@H](CO)OC(O)[C@@H]1NC(C)=O` (some centres not stated) [MURABUTIDE], in the series with THP-1 [8], the Activity came out at 2694 pg/mL. Further, the outcome with THP-1 [9] and in the series on THP-1 [12] was Active. For the same compound, the outcome with THP-1 [10] was inactive. The Flu intensity in the series with THP-1 [11] stood at 1436.05.

Regarding `CCCCCCNC(=O)CC[C@@H](NC(=O)[C@H](C)NC(=O)COc1cccc(NCCCO)c1)C(N)=O`, the result in the series on THP-1 [2], in the series on THP-1 [4] and with THP-1 [9] was Active. Also, the Activity with THP-1 [8] came out at 3622 pg/mL. Also, the result in the series with THP-1 [10] was inactive. In addition, the Flu intensity in the series with THP-1 [11] was 885.76.
